# In patent publication US20080108686A1, “N-(Ortho-Phenyl)-1-Methyl-3-Difluoromethylpyrazole-4-Carboxanilides And Their Use As Fungicides” (BASF Aktiengesellschaft, priority 2004, published 2008):
# Assays:
# Puccinia recondita [1] = test: Use Example 1: curative activity against brown rust of wheat; type: in vivo; details: curative spray 1 day after inoculation, wheat cultivar Kanzler, assessed after 7 days, untreated 90%
# Description: (§1) The active compounds, separately or jointly, were prepared as a stock solution comprising 25 mg of active compound which was made up to 10 ml using a mixture of acetone and/or DMSO and the emulsifier Uniperol® EL (welting agent having an emulsifying and dispersing action based on ethoxylated alkylphenols) in a ratio by volume of solvent/emulsifier of 99:1. The mixture was then made up to 100 ml with water. This stock solution was diluted with the solvent/emulsifier/water mixture described to give the concentration of active compound stated below. Alternatively, the active compounds were employed as a commercial finished formulation and diluted with water to the stated concentration of active compound.
# (§2) Curative Activity Against Brown Rust of Wheat Caused by Puccinia recondita
# Leaves of polted wheat seedlings of the cultivar “Kanzler” were inoculated with a spore suspension of brown rust (Puccinia recondita). The pots were then placed into a chamber with high atmospheric humidity (90-95%) at 20-22° C. for 24 hours. During this time, the spores germinated and the germ tubes penetrated into the leaf tissue. The next day, the infected plants were sprayed to runoff point with an aqueous suspension having the concentration of active compound stated below. The suspension or emulsion was prepared as described above. After the spray coating had dried on, the test plants were cultivated in a greenhouse at temperatures between 20 and 22° C. and at 65 to 70% relative atmospheric humidity for 7 days. The extent of the rust fungus development on the leaves was then determined.
# Leptosphaeria nodorum = test: Comparative Test 2: activity against leaf blotch on wheat; type: in vivo; details: protective spray 1 day before inoculation, wheat cultivar Kanzler, assessed after 8 days, untreated 80%
# Description: as §1
# Activity Against Leaf Blotch on Wheat Caused by Leptosphaeria nodorum
# Comp. 35 of EP-A 0 589301 was compared to the compounds 67.1-67.14 according to the invention of table 67. Pots of wheat plants of the cultivar “Kanzler” was sprayed to runoff point with an aqueous suspension having the concentration of active compound stated below. The next day, the pots were inoculated with an aqueous spore suspension of Leptosphaeria nodorum (syn. Stagonospora nodorum, Septoria nodorum). The plants were then placed into a chamber at 20° C. and maximum atmospheric humidity. After 8 days, the leaf blotch on the untreated but infected control plants had developed to such an extent that the infection could be determined visually in %.
# Puccinia recondita [2] = test: Comparative Test 1: curative activity against brown rust of wheat; type: in vivo; details: curative spray 1 day after inoculation, wheat cultivar Kanzler, assessed after 7 days, comparison with Comp. 35 of EP-A 0 589301, untreated 90%
# Description: as §1, §2
# Comp. 35 of EP-A 0 589301 was compared to the compounds 67.1-67.14 according to the invention of table 67. Leaves of potted wheat seedlings of the cultivar “Kanzler” were inoculated with a spore suspension of brown rust (Puccinia recondita). The pots were then placed into a chamber with high atmospheric humidity (90-95%) at 20-22° C. for 24 hours. During this time, the spores germinated and the germ tubes penetrated into the leaf tissue. The next day, the infected plants were sprayed to runoff point with an aqueous suspension having the concentration of active compound stated below. The suspension or emulsion was prepared as described above. After the spray coating had dried on, the test plants were cultivated in a greenhouse at temperatures between 20 and 22° C. and at 65 to 70% relative atmospheric humidity for 7 days. The extent of the rust fungus development on the leaves was then determined.
# Botrytis cinerea = test: Use Example 2a: activity against gray mold on bell pepper leaves, protective application; type: in vivo; details: protective spray 1 day before inoculation, bell pepper seedlings, assessed after 5 days, untreated 90%
# Description: as §1
# Activity against gray mold on bell pepper leaves caused by Botrytis cinerea, protective application Bell pepper seedlings of the cultivar “Neusiedler Ideal Elite” were, after 2-3 leaves were well developed, sprayed to runoff point with an aqueous suspension having the concentration of active compound stated below. The next day, the treated plants were inoculated with a spore suspension of Botrytis cinerea which comprised 1.7×10^6 spores/ml in a 2% strength aqueous biomalt solution. The test plants were then placed into a dark climatized chamber at 22-24° C. and high atmospheric humidity. After 5 days, the extent of the fungal infection on the leaves could be determined visually in %.
# Pyrenophora teres = test: Use Example 2b: activity against net blotch of barley, 1 day protective application; type: in vivo; details: protective spray 24 hours before inoculation, barley seedlings, assessed after 6 days, untreated 90%
# Description: as §1
# Activity Against Net Blotch of Barley Caused byPyrenophora teres, 1 day Protective Application
# Leaves of potted barley seedlings were sprayed to runoff point with an aqueous suspension having the concentration of active compound stated below. 24 hours after the spray coating had dried on, the test plants were inoculated with an aqueous spore suspension of Pyrenophora [syn. Drechslera] teres, the net blotch pathogen. The test plants were then placed into a greenhouse at temperatures between 20 and 24° C. and 95 to 100% relative atmospheric humidity. After 6 days, the extent of the development of the disease was determined visually in % infection of the total leaf area.
Structure (SMILES),Infection at PUCCRT K1 at 250 ppm (%) (Puccinia recondita [1]),Infection at LEPTNO P1 at 250 ppm (%) (Leptosphaeria nodorum),Infection at PUCCRT K1 at 250 ppm (%) (Puccinia recondita [2]),Infection at BOTRCI P1 at 250 ppm (%) (Botrytis cinerea),Infection at PYRNTE P1 at 250 ppm (%) (Pyrenophora teres),melting point [°C]
Cn1cc(C(=O)Nc2ccccc2-c2cc(Cl)cc(Cl)c2)c(C(F)F)n1 [Compound 67.1],0,25,0,1,–,–
Cc1cc(F)ccc1-c1ccccc1NC(=O)c1cn(C)nc1C(F)F [Compound 67.10],0,15,0,0,–,–
Cn1cc(C(=O)Nc2ccccc2-c2ccc(Cl)c(F)c2)c(C(F)F)n1 [Compound 67.12],0,3,0,7,–,–
Cn1cc(C(=O)Nc2ccccc2-c2ccc(F)cc2F)c(C(F)F)n1 [Compound 67.13],0,3,0,–,5,–
Cn1cc(C(=O)Nc2ccccc2-c2ccc(F)c(Cl)c2)c(C(F)F)n1 [Compound 67.2],0,3,0,0,–,–
Cn1cc(C(=O)Nc2ccccc2-c2ccc(Cl)cc2Cl)c(C(F)F)n1 [Compound 67.5],0,15,0,–,–,–
Cn1cc(C(=O)Nc2ccccc2-c2cc(F)ccc2F)c(C(F)F)n1 [Compound 67.6],0,3,0,10,–,–
Cn1cc(C(=O)Nc2ccccc2-c2ccccc2)c(C(F)F)n1 [reference compound],–,80,25,–,–,–
Cn1cc(C(=O)Nc2ccccc2-c2ccc(F)c(F)c2)c(C(F)F)n1 [Compound 67.3],0,7,0,1,–,–
"Cn1cc(C(=O)Nc2ccccc2-c2ccc(Cl)c(Cl)c2)c(C(F)F)n1 [Compound 67.4, 3-difluoromethyl-1-methyl-N-(ortho-(3,4-dichlorophenyl)phenyl)-pyrazole-4-carboxamide]",0,3,0,0,–,129 to 130
Cc1cc(-c2ccccc2NC(=O)c2cn(C)nc2C(F)F)ccc1F [Compound 67.11],0,–,0,0,–,–
COc1ccc(-c2ccccc2NC(=O)c2cn(C)nc2C(F)F)c(C)c1 [Compound 67.14],0,5,0,–,–,–
Cn1cc(C(=O)Nc2ccccc2-c2ccc(Cl)cc2F)c(C(F)F)n1 [Compound 67.7],0,0,0,–,5,–
Cc1cc(-c2ccccc2NC(=O)c2cn(C)nc2C(F)F)ccc1Cl [Compound 67.9],3,–,3,0,–,–
Cc1cc(Cl)ccc1-c1ccccc1NC(=O)c1cn(C)nc1C(F)F [Compound 67.8],0,–,0,0,–,–
